Here are results for twelve molecules from US20090023747A1, “Cysteine Protease Inhibitors” (priority 2005, published 2009).

For one data set, the target named is T1, cathepsin K (Homo sapiens, UniProt P43235).
T1 construct: made in house; host or cells: not fixed: E coli, Pichia or Baculovirus systems named as options
T1 sequence (P43235 115-329): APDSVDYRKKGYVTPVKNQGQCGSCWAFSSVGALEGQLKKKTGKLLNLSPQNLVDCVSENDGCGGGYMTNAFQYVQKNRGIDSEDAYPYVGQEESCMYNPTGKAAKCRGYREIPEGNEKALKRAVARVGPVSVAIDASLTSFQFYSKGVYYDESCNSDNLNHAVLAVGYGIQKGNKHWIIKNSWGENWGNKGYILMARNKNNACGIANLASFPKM
Description: Determination of cathepsin K proteolytic catalytic activity (fluorogenic peptide substrate). The class given is biochemical. To be noted: human recombinant enzyme. The procedure: Convenient assays for cathepsin K are carried out using human recombinant enzyme, such as that described in PDB.
The recombinant cathepsin K can be expressed in a variety of commercially available expression systems including E coli, Pichia and Baculovirus systems.
The purified enzyme is activated by removal of the prosequence by conventional methods.
Standard assay conditions for the determination of kinetic constants used a fluorogenic peptide substrate, typically H-D-Ala-Leu-Lys-AMC, and were determined in either 100 mM Mes/Tris, pH 7.0 containing 1 mM EDTA and 10 mM 2-mercaptoethanol or 100 mMNa phosphate, imM EDTA, 0.1% PEG4000 pH 6.5 or 100 mM Na acetate, pH 5.5 containing 5 mM EDTA and 20 mM cysteine, in each case optionally with […] as stabiliser. The enzyme concentration used was 5 nM. The stock substrate solution was prepared at 10 mM in DMSO. Screens were carried out at a fixed substrate concentration of 60 μM and detailed kinetic studies with doubling dilutions of substrate from 250 μM. The total DMSO concentration in the assay was kept below 3%. All assays were conducted at ambient temperature. Product fluorescence (excitation at 390 nm, emission at 460 nm) was monitored with a Labsystems Fluoroskan Ascent fluorescent plate reader. Product progress curves were generated over 15 minutes following generation of AMC product.
(§1) Potential inhibitors are screened using the above assay with variable concentrations of test compound. Reactions were initiated by addition of enzyme to buffered solutions of substrate and inhibitor. Ki values were calculated according to equation 1
(§2) where v0 is the velocity of the reaction, V is the maximal velocity, S is the concentration of substrate with Michaelis constant of KM, and I is the concentration of inhibitor.

The next data set addresses cathepsin L (Homo sapiens, UniProt P07711). Description: Cathepsin L Ki determination (H-D-Val-Leu-Lys-AMC substrate). The class given is biochemical. As to the method:
The procedure above with the following amendments is used for the determination of Ki for cathepsin L.
The enzyme is commercially available human cathepsin L (for example Calbiochem). The substrate is H-D-Val-Leu-Lys-AMC available from Bahcem. The assay buffer is 100 mM sodium acetate 1 mM EDTA, pH5.5) The DMSO stock (10 mM in 100% DMSO) is diluted to 10% in assay buffer. Enzyme is prepared at 5 nM concentration in assay buffer plus 1 mM dithiothreitol just before use. 2 ul of 10 mM inhibitor made up in 100% DMSO is dispensed into row A. 10 ul of 50 uM substrate (=1/200 dilution of 10 mM stock in DMSO, diluted in assay buffer)
as §1, §2

The target of the next data set is T2, cathepsin S (Homo sapiens, UniProt P25774).
T2 construct: made in house
T2 sequence (P25774 115-331): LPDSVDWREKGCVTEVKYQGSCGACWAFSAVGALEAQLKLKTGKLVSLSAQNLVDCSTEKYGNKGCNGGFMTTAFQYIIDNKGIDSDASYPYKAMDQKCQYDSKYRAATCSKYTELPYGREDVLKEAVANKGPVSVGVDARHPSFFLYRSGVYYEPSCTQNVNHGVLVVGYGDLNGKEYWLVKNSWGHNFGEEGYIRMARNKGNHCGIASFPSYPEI
Description: Cathepsin S Ki determination (boc-Val-Leu-Lys-AMC substrate). The class given is biochemical. To be noted: baculovirus-expressed human cathepsin S. As to the method: The assay uses baculovirus-expressed human cathepsin S and the boc-Val-Leu-Lys-AMC fluorescent substrate available from Bachem in a 384 well plate format, in which 7 test compounds can be tested in parallel with a positive control comprising a known cathepsin S inhibitor comparator.
280 μl/well of 12.5% DMSO are added to rows B-H of two columns of a 96 deep well polypropylene plate. 70 μl/well of substrate is added to row A. 2×250 μl/well of assay buffer (100 mM Na phosphate, 100 mM NaCl, pH 6.5) is added to row A, mixed, and double diluted down the plate to row H.
100 μl/well of assay buffer is added to columns 2-5 and 7-12 of 4 rows of a 96 well V bottom polypropylene plate. 200 μl/well of assay buffer is added to columns 1 and 6.
2 μl of each 10 mM test compound is added to a separate well on row A, columns 1-10. Add 90 μl assay buffer containing 1 mM DTT and 2 nM cathepsin S to each well of rows B-H and 180 μl to row A. Mix row A using a multichannel pipette and double dilute to row G. Mix row H and read in the fluorescent spectrophotometer.
The second test compound is added to column 6 of the top row, the third to column 1 of the second row etc. Add 1 μl of comparator to column 6 of the bottom row. Mix column 1 and double dilute to column 5. Mix column 6 and double dilute to column 10.
Using an 8-channel multistepping pipette set to 5×10 μl, distribute 10 μl/well of substrate to the 384 well assay plate. Distribute the first column of the substrate dilution plate to all columns of the assay plate starting at row A. The tip spacing of the multichannel pipette will correctly skip alternate rows. Distribute the second column to all columns starting at row B.
Using a 12-channel multistepping pipette set to 4×10 μl, distribute 10 μl/well of inhibitor to the 384 well assay plate. Distribute the first row of the inhibitor dilution plate to alternate rows of the assay plate starting at A1. The tip spacing of the multichannel pipette will correctly skip alternate columns. Similarly, distribute the second, third and fourth rows to alternate rows and columns starting at A2, B1 and B2 respectively.
Mix 20 ml assay buffer and 20 μl 1M DTT. Add sufficient cathepsin S to give 2 nM final concentration.
Using the a distributor such as a Multidrop 384, add 30 μl/well to all wells of the assay plate and read in fluorescent spectrophotomoter such as an Ascent.
Fluorescent readings, (excitation and emission wavelengths 390 nm and 460 nm respectively, set using bandpass filters) reflecting the extent of enzyme cleavage of the fluorescent substrate, […] the inhibitor, are linear rate fitted for each well.
Fitted rates for all wells for each inhibitor are fitted to the competitive inhibition equation using SigmaPlot 2000 to determine V, Km and Ki values.
as §1, §2

For data set [1] the following is noted: reference markers for the permeability assay; cited from earlier work.

cathepsin L, sequence (P07711 114-333): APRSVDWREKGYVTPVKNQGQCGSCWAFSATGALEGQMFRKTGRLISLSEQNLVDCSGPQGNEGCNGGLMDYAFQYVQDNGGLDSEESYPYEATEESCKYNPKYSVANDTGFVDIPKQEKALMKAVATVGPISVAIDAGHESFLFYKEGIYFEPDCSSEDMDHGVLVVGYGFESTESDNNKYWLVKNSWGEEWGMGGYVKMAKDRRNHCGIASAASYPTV

For the molecule `CC(C)C[C@H](N[C@@H](c1ccc(-c2ccc(S(C)(=O)=O)cc2)cc1)C(F)(F)F)C(=O)N1C[C@H](F)[C@H]2OCC(=O)[C@H]21` [Example 14, (3aS,6S,6aS)-6-Fluoro-4-[(S)-4-methyl-2-{(S)-2,2,2-trifluoro-1-(4′-methanesulfonyl-biphenyl-4-yl)-ethylamino]-pentanoyl}-tetrahydro-furo[3,2-b]pyrrol-3-one], the IC50 was determined as 0.029 µM at cathepsin K, 100 µM against cathepsin L and 36 µM at cathepsin S.
As for `CC(C)C[C@H](N[C@@H](c1ccc(-c2cccc(S(C)(=O)=O)c2)cc1)C(F)(F)F)C(=O)N1C[C@H](F)[C@H]2OCC(=O)[C@H]21` [Example 18, (3aS,6S,6aS)-6-Fluoro-4-{(S)-4-methyl-2-[(S)-2,2,2-trifluoro-1-(3′-methanesulfonyl-biphenyl-4-yl)-ethylamino]-pentanoyl}-tetrahydro-furo[3,2-b]pyrrol-3-one], the IC50 is 0.056 µM on cathepsin K, 94 µM against cathepsin L and 19 µM at cathepsin S.
With `CC(C)C[C@H](N[C@@H](c1ccc(-c2ccc(F)cc2)cc1)C(F)(F)F)C(=O)N1C[C@H](F)[C@H]2OCC(=O)[C@H]21` [Example 20, (3aS,6S,6aS)-6-Fluoro-4-{(S)-4-methyl-2-[(S)-2,2,2-trifluoro-1-(4′-fluoro-biphenyl-4-yl)-ethylamino]-pentanoyl}-tetrahydro-furo[3,2-b]pyrrol-3-one], the IC50 at cathepsin K was 0.18 µM; on cathepsin L it was 30 µM; at cathepsin S, 37 µM.
Take `CC(C)C[C@H](N[C@@H](c1ccc(-c2ccccc2F)cc1)C(F)(F)F)C(=O)N1C[C@H](F)[C@H]2OCC(=O)[C@H]21` [Example 26, (3aS,6S,6aS)-6-Fluoro-4-{(S)-4-methyl-2-[(S)-2,2,2-trifluoro-1-(2′-fluoro-biphenyl-4-yl)-ethylamino]-pentanoyl}-tetrahydro-furo[3,2-b]pyrrol-3-one]: the IC50 on cathepsin K was 0.044 µM; at cathepsin L, 25 µM; against cathepsin S, 22 µM.
The corresponding values for `CSc1ccc(-c2ccc([C@H](N[C@@H](CC(C)C)C(=O)N3C[C@H](F)[C@H]4OCC(=O)[C@H]43)C(F)(F)F)cc2)cc1` [Example 28, (3aS,6S,6aS)-6-Fluoro-4-{(S)-4-methyl-2-[(S)-2,2,2-trifluoro-1-(4′-methylsulfanyl-biphenyl-4-yl)-ethylamino]-pentanoyl}-tetrahydro-furo[3,2-b]pyrrol-3-one] are 0.051 µM, 5.5 µM and 10 µM.
`CC(C)C[C@H](N[C@@H](c1ccc(-c2ccc([S+](C)[O-])cc2)cc1)C(F)(F)F)C(=O)N1C[C@H](F)[C@H]2OCC(=O)[C@H]21` (stereo partly drawn) [Example 29, (3aS,6S,6aS)-6-Fluoro-4-{(S)-4-methyl-2-[(S)-2,2,2-trifluoro-1-(4′-methylsulfoxide-biphenyl-4-yl)-ethylamino]-pentanoyl}-tetrahydro-furo[3,2-b]pyrrol-3-one]: the values for the IC50 at cathepsin K, on cathepsin L and against cathepsin S were 0.018 µM, 180 µM and 27 µM, respectively.
In the same order, the values of `COc1ccc(-c2ccc([C@H](N[C@@H](CC(C)C)C(=O)N3C[C@H](F)[C@H]4OCC(=O)[C@H]43)C(F)(F)F)cc2)cc1` [Example 31, (3aS,6S,6aS)-6-Fluoro-4-{(S)-4-methyl-2-[(S)-2,2,2-trifluoro-1-(4′-methoxy-biphenyl-4-yl)-ethylamino]-pentanoyl}-tetrahydro-furo[3,2-b]pyrrol-3-one] are 0.07 µM, 29 µM and 19 µM.
Turning to `Cc1ccc(-c2ccc([C@H](N[C@@H](CC(C)C)C(=O)N3C[C@H](F)[C@H]4OCC(=O)[C@H]43)C(F)(F)F)cc2)cc1` [Example 33, (3aS,6S,6aS)-6-Fluoro-4-{(S)-4-methyl-2-[(S)-2,2,2-trifluoro-1-(4′-methyl-biphenyl-4-yl)-ethylamino]-pentanoyl}-tetrahydro-furo[3,2-b]pyrrol-3-one], the IC50 on cathepsin K came to 0.19 µM; on cathepsin L it was 20 µM; on cathepsin S it was 20 µM.
As for `CC(C)C[C@H](N[C@@H](c1ccc(-c2csc(N3CCN(C)CC3)n2)cc1)C(F)(F)F)C(=O)N1C[C@H](F)[C@H]2OCC(=O)[C@H]21` [Example 58, (3aS,6S,6aS)-6-Fluoro-4-[(S)-4-methyl-2-((S)-2,2,2-trifluoro-1-{4-[2-(4-methyl-piperazin-1-yl)-thiazol-4-yl]-phenyl}-ethylamino)-pentanoyl]-tetrahydro-furo[3,2-b]pyrrol-3-one], the IC50 is below 0.005 µM on cathepsin K, 139 µM against cathepsin L and 188 µM against cathepsin S.
`N[C@@H](Cc1ccccc1)C(=O)O` [L-Phenylalanine]: the “% absorption in man” value in data set [1] was 100%.
For `OC[C@@H](O)[C@@H](O)[C@H](O)[C@H](O)CO` [Mannitol], the “% absorption in man” value in data set [1] is on record as 16%.
Regarding `CN(Cc1cnc2nc(N)nc(N)c2n1)c1ccc(C(=O)N[C@@H](CCC(=O)O)C(=O)O)cc1` [Methotrexate], the “% absorption in man” value in data set [1] is reported as 20%.

Usually IC50 stands for the concentration needed to halve the response being measured.
